Assay results as given in US20230190745A1, “USE OF METABOLIC REGULATORS FOR THE TREATMENT OF COVID-19” (YISSUM RESEARCH DEVELOPMENT COMPANY OF THE HEBREW …, priority 2020, published 2023).
Read-outs that look alike come from different tables or passages of the source.

Assays:
[1] = test system: SARS-CoV-2; assay: Viral load quantitative real-time PCR in SARS-CoV-2 infected NHBE cells under drug treatment; assay type: cell-based; conditions: for reduction of SARS-CoV-2 viral load: 5 days of treatment, viral RNA vs DMSO vehicle, n=3
[2] = test system: COVID-19 patients; assay: Observational comparison of representation of metabolic regulator users in hospital records versus COVID-19 cases (chi-squared / IRR, Table 3); assay type: in vivo, human; conditions: for representation among COVID-19 severity indicators (hospitalization, ICU admission, deaths): chi-squared test vs general hospital medical records
[3] = test system: SARS-CoV-2 infected lung cells; assay type: cell-based; conditions: 5 days exposure, vs DMSO-treated and mock-infected controls
[4] = test system: SARS-CoV-2 infected primary lung cells; assay type: cell-based, human
[5] = test system: SARS-CoV-2 infected lung cells; assay: Cell viability (Hoechst staining) of SARS-CoV-2 infected lung cells exposed to drugs; assay type: cell-based, human; conditions: 5 days exposure
Method: Drug Treatments: Approximately 5×10^5 NHBE cells were infected with SARS-CoV-2 at a MOI of 2 in bronchial epithelial growth media. […] After 24 h, the media was collected and changed to bronchial epithelial growth media with the respective drug at the concentration listed above. Then, every 48 hours media was collected and replenished. The media was stored at −80° C. immediately after removal. Culture viability was assessed at the end the experiment using Hoechst staining.

[6] = test system: COVID-19 patients; assay: Secondary outcomes and organ failure, incidence rate ratios and Cox hazard ratios (Table 4); assay type: in vivo, human
Text: Any death that occurred was documented.

[7] = test system: COVID-19 patients; assay: Retrospective cohort of hospitalized COVID-19 patients taking metabolic regulators, outcomes before PSM (Table 2); assay type: in vivo, human; conditions: users before PSM
Method: Israeli Study Design and Participants: A retrospective, multi-center study was conducted in Hadassah and Ichilov medical centers. A total of 20,153 participants were diagnosed positive for SARS-COV-2 following WHO interim guidance (World Health Organization, 2020). Only patients hospitalized and diagnosed with COVID-19 were included. Participants with incomplete electronic medical records, aged less than 18, with pregnancy or severe medical conditions, including acute lethal organ injury (i.e., acute coronary syndrome, acute stroke, and severe acute pancreatitis) were excluded. The flowchart for patient inclusion is illustrated in FIG. 4J. Participants were admitted between Mar. 1, 2020, and Aug. 31, 2020 to either the Hadassah Medical Center in Jerusalem or the Tel Aviv Sourasky Medical Center. The final date of the follow up was Sep. 28, 2020. The study protocols were approved by the institutional ethics committee. Patient informed consent was waived by each ethics committee. Demographic and clinical characteristics, vital signs, laboratory tests, radiological reports, therapeutic interventions, and outcome data were extracted from electronic medical records using a standardized data collection. The laboratory data included a routine blood test, serum biochemical markers reflecting liver injury, kidney injury, and cardiac injury, lipid profile, IL-6, CRP, procalcitonin, and D-dimer were collected during hospitalization. In-hospital medication and life support intervention included the classification of the drugs, the dosage, the course of treatment, and using respiratory support were also extracted from medical records.

[8] = test system: COVID-19 patients; conditions: 21-day hospitalization, vs PSM-matched controls
Method: In clinical data, continuous variables with non-normal distributions were expressed as median [IQR]. Categorical variables were expressed as number and percentage (%). […] Comparisons between groups were performed with Mann-Whitney U test for nonparametric variables and Fisher's exact test or χ2 test for categorical variables. Person-time data (Incidence) of two groups with different exposures may be expressed as a difference between incidence rates or as a ratio of incidence rates (IRRs). The IRRs of endpoint outcomes were calculated to estimate the incidence difference in absolute change in the incidence of two comparison groups. The cumulative rates of death were compared using the Kaplan-Meier curves. Dynamic changes of inflammatory factors tracking from day 0 to day 28 after admission were depicted using the Lowess model. A two-side a less than 0.05 was considered to define statistical significance. Data were analyzed in R-3.6.3 (R Foundation for Statistical Computing, Vienna, Austria) and SPSS Statistics (version 23.0, IBM, Armonk, N.Y., USA).
To study the effects of metabolic regulators on COVID-19 progression the dynamic changes in circulating C-reactive protein (CRP), neutrophils, and lymphocytes markers of SARS-CoV-2 induced immunoinflammatory response were analyzed.

[9] = test system: COVID-19 patients; assay: Propensity score-matched analysis of hospitalized COVID-19 patients, outcomes after PSM (Table 5); assay type: in vivo, human
[10] = physiological concentrations (Cmax): 20 μM rosiglitazone, 5 μM empagliflozin, 1 mM metformin
[11] = adjusted hazard ratio, mixed-effect Cox model, treatment versus non-treatment group
[12] = incidence rate in treatment group (first figure of 'x versus y')
[13] = incidence rate ratio, treatment versus non-treatment group
[14] = vs PSM-matched non-treatment group
[15] = vs share in 249,939 patient records 2015-2020

CN(CCOc1ccc(CC2SC(=O)NC2=O)cc1)c1ccccn1 (stereo not shown) [Rosiglitazone]
effect on SARS-CoV-2 infected primary cells (FIG. 4C-G) [1]: no effect

CC(C)(Oc1ccc(C2CC2(Cl)Cl)cc1)C(=O)O (stereo not shown) [ciprofibrate]
representation among COVID-19 severity indicators (hospitalization, ICU admission, deaths) [2]: underrepresented in ICU admissions and deaths

Clc1ccc(C(OCCN2CCCCC2)c2ccccc2)cc1 (stereo not shown) [cloperastine]
phospholipid accumulation / lipid content [3]: did not result in a reduction of lipid content
reduction of SARS-CoV-2 viral load ([1]; 10 μM): 3 fold
glycolytic index / increase in glycolysis ([4]; Cmax concentration, infected primary cells): did not result in a reduction of lipid content or change in the glycolytic index
cell viability [5]: without affecting cell viability

OC[C@H]1O[C@@H](c2ccc(Cl)c(Cc3ccc(O[C@H]4CCOC4)cc3)c2)[C@H](O)[C@@H](O)[C@@H]1O [empagliflozin]
effect on SARS-CoV-2 infected primary cells (FIG. 4C-G) [1, 10]: no effect

CC(C)OC(=O)C(C)(C)Oc1ccc(C(=O)c2ccc(Cl)cc2)cc1 [fenofibrate]
reduction of SARS-CoV-2 viral load ([1]; 20 μM fenofibrate): 2 logs
reduction of lactate to glucose ratio ([4]; SARS-CoV-2 infected primary lung cells, n=3, p<0.01): 60%
cell viability [5]: without affecting cell viability

CN(C)C(=N)N=C(N)N [metformin]
aHR, ICU admission [6, 11]: 1.1
aHR, acute cardiac injury [6, 11]: 1.1
aHR, acute kidney injury [6, 11]: 0.48
aHR, acute liver injury [6, 11]: 0.76
aHR, invasive mechanical ventilation [6, 11]: 1.3
aHR, septic shock [6, 11]: 1.6
IR, ICU admission [6, 12]: 0.37 versus 0.31 100-person-day
IR, acute cardiac injury [6, 12]: 0.25 versus 0.36 100-person-day
IR, acute kidney injury [6, 12]: 0.18 versus 0.37 100-person-day
IR, acute liver injury [6, 12]: 0.05 versus 0.11 100-person-day
IR, septic shock [6, 12]: 0.16 versus 0.12 100-person-day
IR, invasive mechanical ventilation ([6]; incidence rate in treatment group (first figure of 'x versus y'; second is the non-treatment group)): 0.15 versus 0.12 100-person-day
IRR, ICU admission [6, 13]: 1.2
IRR, acute cardiac injury [6, 13]: 0.69
IRR, acute kidney injury [6, 13]: 0.47
IRR, acute liver injury [6, 13]: 0.43
IRR, invasive mechanical ventilation [6, 13]: 1.3
IRR, septic shock [6, 13]: 1.3
Follow-up days, median [7]: 5.0 days
High Flow Oxygen, % [7]: (19%)
ICU admission, % [7]: (30.7%)
Mechanically Ventilated/ECMO, % [7]: (12.44%)
Non-invasive positive pressure ventilation, % [7]: (7.3%)
Oxygen Supplementation, % [7]: (38%)
circulating CRP levels (inflammation) [8]: no significant differences
lymphocyte counts [8]: lower lymphocyte count during the recovery period
neutrophil counts [8]: lower initial neutrophil counts but relativity similar response to their PSM-matched controls
Follow-up days, median (IQR) ([9]; median, drug users after PSM): 4.8 days
High Flow Oxygen, % ([9]; share of drug users after PSM): (15.6%)
ICU admission, % ([9]; share of drug users after PSM): (16.3%)
Mechanically Ventilated/ECMO, % ([9]; share of drug users after PSM): (10.4%)
Non-invasive positive pressure ventilation, % ([9]; share of drug users after PSM): (2.2%)
Oxygen Supplementation, % ([9]; share of drug users after PSM): (42.2%)
ICU admission rates [9, 14]: higher ICU admission rate and respiratory interventions
length of hospitalization [9, 14]: longer hospitalizations
mortality rates [9, 14]: higher mortality rates
respiratory intervention rates [9, 14]: higher ICU admission rate and respiratory interventions
effect on SARS-CoV-2 infected primary cells (FIG. 4C-G) [1, 10]: no effect
representation among COVID-19 severity indicators (hospitalization, ICU admission, deaths) [2]: significant over-representation
COVID-19 Deceased, number of patients taking the drug ([2]; of 100 COVID-19 deceased): 13
COVID-19 Deceased, share of patients taking the drug ([2]; of 100 COVID-19 deceased): 13.00%
COVID-19 ICU, number of patients taking the drug ([2]; of 312 COVID-19 ICU patients): 42
COVID-19 ICU, share of patients taking the drug ([2]; of 312 COVID-19 ICU patients): 13.46%
COVID-19 Hospitalization, share of patients taking the drug ([2]; of 1,531 hospitalized COVID-19 cases): 8.82%
COVID-19 Hospitalization, number of patients taking the drug ([2]; of 1,531 hospitalized COVID-19 cases, adults over 40): 135
IRR, COVID-19 Deceased [2, 15]: 1.85
IRR, COVID-19 Hospitalization [2, 15]: 1.26

CCCc1nc2c(C)cc(-c3nc4ccccc4n3C)cc2n1Cc1ccc(-c2ccccc2C(=O)O)cc1 [telmisartan]
representation among COVID-19 severity indicators (hospitalization, ICU admission, deaths) [2]: over-represented in ICU admission and deaths
